Values quoted from earlier work in patent US10654880B2, “Methods for preparation of glycosphingolipids and uses thereof” (priority 2011, dated 2020).

Test system: breast cancer tumors (4T1 cell line)
Conditions: breast cancer-bearing mice (4T1), relative to untreated group

## CCCCCCCCCCCCCCCCCCCCCCCCCC(=O)N[C@@H](CO[C@H]1O[C@H](CO)[C@H](O)[C@H](O)[C@H]1O)[C@H](O)[C@H](O)CCCCCCCCCCCCCC [α-GalCer, alpha-galactosylceramide]
  inhibition of tumor growth rate: 50%
